Counter-ions that a name gives are not always drawn. Like-named read-outs stand apart in the source and are kept apart here.
Molecular target: MCH receptor (Homo sapiens, UniProt Q99705)
Experiment: High Throughput Functional Screening: FLIPR/FDSS6000 intracellular Ca2+ assay, antagonist activity against MCH
Type: cell-based
Parameters: class (percent of control at 10^−7 M or IC50): scale not given here
Conditions: FLIPR/FDSS, [Ca2+]i evoked by 50 nM MCH
Description: Subsequently, a functional based assay was used to confirm the lead hits, referred to as FLIPR™ (the Fluorometric Imaging Plate Reader) and FDSS6000™ (Functional Drug Screening System). This assay utilized a non-endogenous, constitutively active version of the MCH receptor.
The FLIPR and FDSS assays are able to detect intracellular Ca^2+ concentration in cells, which can be utilized to assess receptor activation and determine whether a candidate compound is an, for example, antagonist, inverse agonist or agonist to a Gq-coupled receptor. The concentration of free Ca^2+ in the cytosol of any cell is extremely low, whereas its concentration in the extracellular fluid and endoplasmic reticulum (ER) is very high. Thus, there is a large gradient tending to drive Ca^2+ into the cytosol across both the plasma membrane and ER. The FLIPR™ and FDSS6000™ systems (Molecular Devices Corporation, HAMAMATSU Photonics K.K.) are designed to perform functional cell-based assays, such as the measurement of intracellular calcium for high-throughput screening. The measurement of fluorescent is associated with calcium release upon activation of the Gq-coupled receptors.
Fluorometric Imaging Plate Reader system was used to allow for rapid, kinetic measurements of intracellular fluorescence in 96 well microplates (or 384 well microplates). Simultaneous measurements of fluorescence in all wells can be made by FLIPR or FDSS6000™ every second with high sensitivity and precision. These systems are ideal for measuring cell-based functional assays such as monitoring the intracellular calcium fluxes that occur within seconds after activation of the Gq coupled receptor.
Briefly, the cells are seeded into 96 well at 5.5×10^4 cells/well with complete culture media (Dulbecco's Modified Eagle Medium with 10% fetal bovine serum, 2 mM L-glutamine, 1 mM sodium pyruvate and 0.5 mg/mL G418, pH 7.4) for the assay next day. On the day of assay, the media is removed and the cells are incubated with 100 μl of loading buffer (4 μM Fluo4-AM in complete culture media containing 2.5 mM Probenicid, 0.5 mg/ml and 0.2% bovine serum albumin) in 5% CO2 incubator at 37° C. for 1 hr. The loading buffer is removed, and the cells are washed with wash buffer (Hank's Balanced Salt Solution containing 2.5 mM Probenicid, 20 mM HEPES, 0.5 mg/mL and 0.2% bovine serum albumin, pH 7.4). One hundred fifty μl of wash buffer containing various concentrations of test compound is added to the cells, and the cells are incubated in 5% CO2 incubator at 37° C. for 30 min. Fifty μl of wash buffer containing various concentration of MCH are added to each well, and transient changes in [Ca^2+]i evoked by MCH are monitored using the FLIPR™ or FDSS in 96 well plates at Ex. 488 nm and Em. 530 nm for 290 second. When antagonist activity of compound is tested, 50 nM of MCH is used.
Use of FLIPR™ and FDSS6000™ can be accomplished by following manufacturer's instruction (Molecular Device Corporation and HAMAMATSU Photonics K.K.).

[1] = class by percent of control at 10^−7 M or IC50, read-out: class (percent of control at 10^−7 M or IC50)
[2] = class by percent of control at 10^−7 M or IC50

Row | IC50 [1] | class (percent of control at 10^−7 M or IC50) [2] | Compound | also measured
1 | < 0.05 µM | – | Cc1cc(N[C@H]2CC[C@@H](NC(=O)c3ccc(F)c(Cl)c3)CC2)nc(C)c1C [Example 50, 3-Chloro-4-fluoro-N-{cis-4-[(4,5,6-trimethylpyridin-2-yl)amino]cyclohexyl}benzamide hydrochloride] | –
2 | < 0.05 µM | – | Cc1cnc(N[C@H]2CC[C@@H](NC(=O)c3ccc(F)c(Cl)c3)CC2)cc1C [Example 51, 3-Chloro-N-{cis-4-[(4,5-dimethylpyridin-2-yl)amino]cyclohexyl}-4-fluorobenzamide hydrochloride] | –
3 | – | 2 | Cc1cnc(N[C@H]2CC[C@@H](NC(=O)c3ccc(F)c(Cl)c3)CC2)cc1N.Cl [Example 17, N-{cis-4-[(4-Amino-5-methylpyridin-2-yl)amino]cyclohexyl}-3-chloro-4-fluorobenzamide hydrochloride] | –
4 | – | 2 | Cc1cnc(N[C@H]2CC[C@@H](NC(=O)c3ccc(F)c(Cl)c3)CC2)cc1N1CCCC1.Cl [Example 20, 3-Chloro-4-fluoro-N-{cis-4-[(5-methyl-4-pyrrolidin-1-ylpyridin-2-yl)amino]cyclohexyl}-benzamide hydrochloride] | –
5 | < 0.05 µM | – | Cc1cnc(N[C@H]2CC[C@@H](NC(=O)c3ccc(F)c(Cl)c3)CC2)cc1N(C)C [Example 4, 3-Chloro-N-(cis-4-{[4-(dimethylamino)-5-methylpyridin-2-yl]amino}cyclohexyl)-4-fluorobenzamide hydrochloride] | IC50 (non-endogenous constitutively active MCH receptor, read-out: IC50): 0.001 µM
6 | – | 2 | Cc1ccnc(N[C@H]2CC[C@@H](NC(=O)c3ccc(F)c(Cl)c3)CC2)c1.Cl [Example 35, 3-Chloro-4-fluoro-N-{cis-4-[(4-methylpyridin-2-yl)amino]cyclohexyl}benzamide hydrochloride] | –
7 | < 0.05 µM | – | Cc1cc(N(C)C)cc(N[C@H]2CC[C@@H](NC(=O)c3ccc(F)c(Cl)c3)CC2)n1 [Example 28, 3-Chloro-N-(cis-4-{[4-(dimethylamino)-6-methylpyridin-2-yl]amino}cyclohexyl)-4-fluorobenzamide hydrochloride] | –
8 | < 0.05 µM | – | Cc1ccc(N[C@H]2CC[C@@H](NC(=O)c3ccc(F)c(Cl)c3)CC2)nc1C [Example 43, 3-Chloro-N-{cis-4-[(5,6-dimethylpyridin-2-yl)amino]cyclohexyl}-4-fluorobenzamide hydrochloride] | –
9 | – | 2 | Cc1cc(C)c(N[C@H]2CC[C@@H](NC(=O)c3ccc(F)c(Cl)c3)CC2)nc1C.Cl [Example 53, 3-Chloro-4-fluoro-N-{cis-4-[(3,5,6-trimethylpyridin-2-yl)amino]cyclohexyl}benzamide hydrochloride] | –

More lines, now with the values behind:

Row | Compound | IC50 [1] | class (percent of control at 10^−7 M or IC50) [2] | also measured
10 | COc1ccc(Oc2ccc([N+](=O)[O-])cc2C(=O)N[C@H]2CC[C@@H](Nc3cc(N(C)C)cc(C)n3)CC2)cc1 [Example 192, N-(cis-4-{[4-(dimethylamino)-6-methylpyridin-2-yl]amino}cyclohexyl)-2-(4-methoxyphenoxy)-5-nitrobenzamide] | < 0.05 µM | – | –
11 | Cc1cnc(N[C@H]2CC[C@@H](NC(=O)Nc3ccc(F)c(Cl)c3)CC2)cc1N(C)C.Cl [Example 25, N-(3-Chloro-4-fluorophenyl)-N′-(cis-4-{[4-(dimethylamino)-5-methylpyridin-2-yl]amino}cyclohexyl)urea hydrochloride] | – | 2 | –
12 | Cc1cnc(N[C@H]2CC[C@@H](NC(=O)Oc3ccc(Br)cc3)CC2)cc1N(C)C [Example 27, 4-Bromophenyl (cis-4-{[4-(dimethylamino)-5-methylpyridin-2-yl]amino}cyclohexyl)carbamate] | – | 2 | –
13 | CCCN(CCC)S(=O)(=O)c1ccc(C(=O)N[C@H]2CC[C@@H](Nc3cc(N(C)C)cc(C)n3)CC2)cc1 [Example 166, N-(cis-4-{[4-(dimethylamino)-6-methylpyridin-2-yl]amino}cyclohexyl)-4-[(dipropylamino)sulfonyl]benzamide] | – | 2 | –
14 | O=C(N[C@H]1CC[C@@H](Nc2ccc3c(n2)CCCC3)CC1)c1ccc(F)c(Cl)c1 [Example 39, 3-Chloro-4-fluoro-N-[cis-4-(5,6,7,8-tetrahydroquinolin-2-ylamino)cyclohexyl]benzamide hydrochloride] | < 0.05 µM | – | –
15 | Cc1cnc(N[C@H]2CC[C@@H](NC(=O)c3cc(Cl)cc(Cl)c3)CC2)cc1N(C)C [Example 7, 3,5-Dichloro-N-(cis-4-{[4-(dimethylamino)-5-methylpyridin-2-yl]amino}cyclohexyl)benzamide hydrochloride] | < 0.05 µM | – | –
16 | Cc1cc(N(C)C)cc(N[C@H]2CC[C@@H](NC(=O)c3ccc4nonc4c3)CC2)n1 [Example 146, N-(cis-4-{[4-(dimethylamino)-6-methylpyridin-2-yl]amino}cyclohexyl)-2,1,3-benzoxadiazole-5-carboxamide] | < 0.05 µM | – | –
17 | Cc1cc(N(C)C)cc(N[C@H]2CC[C@@H](NC(=O)C3(c4ccc(Cl)cc4)CCCC3)CC2)n1 [Example 186, 1-(4-chlorophenyl)-N-(cis-4-{[4-(dimethylamino)-6-methylpyridin-2-yl]amino}cyclohexyl)cyclopentanecarboxamide] | < 0.05 µM | – | –
18 | Cc1cnc(N[C@H]2CC[C@@H](NC(=O)c3cccc(C(F)(F)F)c3)CC2)cc1N(C)C [Example 14, N-(cis-4-{[4-(Dimethylamino)-5-methylpyridin-2-yl]amino}cyclohexyl)-3-(trifluoromethyl)-benzamide hydrochloride] | < 0.05 µM | – | –
19 | Cc1cnc(N[C@H]2CC[C@@H](NC(=O)c3ccc(F)c(Cl)c3)CC2)cc1N(C)CCc1ccccc1.Cl [Example 49, 3-Chloro-4-fluoro-N-[cis-4-({5-methyl-4-[methyl(2-phenylethyl)amino]pyridin-2-yl}amino)cyclohexyl]benzamide hydrochloride] | – | 2 | –
20 | O=C(N[C@H]1CC[C@@H](Nc2ccc3c(n2)CCCC3)CC1)c1cc(F)c(F)c(F)c1 [Example 40, 3,4,5-Trifluoro-N-[cis-4-(5,6,7,8-tetrahydroquinolin-2-ylamino)cyclohexyl]benzamide hydrochloride] | < 0.05 µM | – | –
21 | Cc1cnc(N[C@H]2CC[C@@H](NC(=O)c3cncc(Br)c3)CC2)cc1N(C)C [Example 11, 5-Bromo-N-(cis-4-{[4-(dimethylamino)-5-methylpyridin-2-yl]amino}cyclohexyl)nicotinamide dihydrochloride] | < 0.05 µM | – | –
22 | Cc1cnc(N[C@H]2CC[C@@H](NC(=O)c3cc(F)cc(Cl)c3)CC2)cc1N(C)C [Example 6, 3-Chloro-N-(cis-4-{[4-(dimethylamino)-5-methylpyridin-2-yl]amino}cyclohexyl)-5-fluorobenzamide hydrochloride] | < 0.05 µM | – | –
23 | CN(C)c1ccnc(N[C@H]2CC[C@@H](NC(=O)c3cc(F)c(F)c(F)c3)CC2)c1 [Example 37, N-(cis-4-{[4-(Dimethylamino)pyridin-2-yl]amino}cyclohexyl)-3,4,5-trifluorobenzamide hydrochloride] | < 0.05 µM | – | –
24 | Cc1cc(N(C)C)cc(N[C@H]2CC[C@@H](NCCOc3ccc(Cl)cc3)CC2)n1 [Example 209, N-(cis-4-{[2-(4-chlorophenoxy)ethyl]amino}cyclohexyl)-N,N-6-trimethylpyridine-2,4-diamine] | – | 2 | –
